Assay results from PubChem BioAssay AID192 (DTP/NCI, 2004).
Where “and” joins values, the source holds several entries; their conditions need not be identical. Equal values may be shown once. Inconclusive results and toxic doses are left out.

Test system: BDF1 mice, B16 melanoma ip, median survival T/C
Experiment: NCI In Vivo Anticancer Drug Screen. Data for tumor model B16 Melanoma (intraperitoneal) in B6D2F1 (BDF1) mice
Conditions: endpoint: median survival time, higher = longer survival
Outline: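 Survival or tumor size is measured after treatment of tumor-bearing mice and normalised to the vehicle-treated control group.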

[1] = dose: 0.25 mg/kg/injection, schedule: Q01DX009 (ip), vehicle: saline
[2] = dose: 0.5 mg/kg/injection, schedule: Q01DX009 (ip), vehicle: saline
[3] = dose: 25.0 mg/kg/injection, schedule: Q01DX009 (ip), vehicle: saline
[4] = dose: 50.0 mg/kg/injection, schedule: Q01DX009 (ip), vehicle: saline
[5] = dose: 100.0 mg/kg/injection, schedule: Q01DX009 (ip), vehicle: saline
[6] = dose: 12.5 mg/kg/injection, schedule: Q01DX009 (ip), vehicle: Klucel (hydroxypropylcellulose) (HPC)
[7] = dose: 25.0 mg/kg/injection, schedule: Q01DX009 (ip), vehicle: Klucel (hydroxypropylcellulose) (HPC)
[8] = dose: 50.0 mg/kg/injection, schedule: Q01DX009 (ip), vehicle: Klucel (hydroxypropylcellulose) (HPC)
[9] = dose: 200.0 mg/kg/injection, schedule: Q01DX009 (ip), vehicle: saline
[10] = dose: 400.0 mg/kg/injection, schedule: Q01DX009 (ip), vehicle: saline
[11] = dose: 50.0 mg/kg/injection, schedule: Q04DX003 (ip), vehicle: Klucel (hydroxypropylcellulose) (HPC)
[12] = dose: 100.0 mg/kg/injection, schedule: Q04DX003 (ip), vehicle: Klucel (hydroxypropylcellulose) (HPC)
[13] = dose: 6.25 mg/kg/injection, schedule: Q01DX009 (ip), vehicle: saline
[14] = dose: 12.5 mg/kg/injection, schedule: Q01DX009 (ip), vehicle: saline
[15] = dose: 3.12 mg/kg/injection, schedule: Q01DX009 (ip), vehicle: saline
[16] = dose: 200.0 mg/kg/injection, schedule: Q04DX003 (ip), vehicle: Klucel (hydroxypropylcellulose) (HPC)
[17] = dose: 100.0 mg/kg/injection, schedule: Q01DX009 (ip), vehicle: saline with Tween-80
[18] = dose: 200.0 mg/kg/injection, schedule: Q01DX009 (ip), vehicle: saline with Tween-80
[19] = dose: 400.0 mg/kg/injection, schedule: Q01DX009 (ip), vehicle: saline with Tween-80
[20] = dose: 25.0 mg/kg/injection, schedule: Q01DX009 (ip), vehicle: saline with Tween-80

SMILES: C1CCC2C[N-]CCC2C1.C1CCC2C[N-]CCC2C1.C1CCC2C[N-]CCC2C1.C1CCC2C[N-]CCC2C1.[Cl][Rh][Cl] (stereo not drawn)
- T/C [1]: 100 % of control
- T/C (dose: 0.5 mg/kg/injection, schedule: Q01DX009 (ip), vehicle: saline with Tween-80): 104 % of control
- T/C [2]: 104 % of control
- T/C (dose: 1.0 mg/kg/injection, schedule: Q01DX009 (ip), vehicle: saline with Tween-80): 95 % of control
- T/C (dose: 1.0 mg/kg/injection, schedule: Q01DX009 (ip), vehicle: saline): 115 % of control
- T/C (dose: 2.0 mg/kg/injection, schedule: Q01DX009 (ip), vehicle: saline with Tween-80): 92 % of control
- T/C (dose: 2.0 mg/kg/injection, schedule: Q01DX009 (ip), vehicle: saline): 123 % of control
- T/C (dose: 4.0 mg/kg/injection, schedule: Q01DX009 (ip), vehicle: saline with Tween-80): 86 % of control
- T/C (dose: 4.0 mg/kg/injection, schedule: Q01DX009 (ip), vehicle: saline): 115 % of control
- T/C (dose: 8.0 mg/kg/injection, schedule: Q01DX009 (ip), vehicle: saline): 110 % of control

SMILES: CNCCN(C)Cc1ccccc1
- T/C [3]: 97 % of control
- T/C [4]: 94 % of control
- T/C [5]: 89 % of control

SMILES: N#CCCNC(Cc1ccc(O)cc1)C(=O)O (stereo not drawn)
- T/C [6]: 109 % of control
- T/C [7]: 100 % of control
- T/C [8]: 88 % of control
- T/C (dose: 56.25 mg/kg/injection, schedule: Q04DX003 (ip), vehicle: Klucel (hydroxypropylcellulose) (HPC)): 95 % of control
- T/C (dose: 75.0 mg/kg/injection, schedule: Q01DX009 (ip), vehicle: Klucel (hydroxypropylcellulose) (HPC)): 116 % of control
- T/C (dose: 112.5 mg/kg/injection, schedule: Q04DX003 (ip), vehicle: Klucel (hydroxypropylcellulose) (HPC)): 105 % of control

SMILES: CSCCC(NC(C)=O)C(=O)NNC(C)C (stereo not drawn)
- T/C [3]: 105 % of control
- T/C [4]: 88 % of control
- T/C [5]: 123 % of control
- T/C [9]: 88 % of control
- T/C [10]: 97 % of control

SMILES: COc1ccc(/C=C\C(=O)/C=C/c2ccc(OC)cc2)cc1
- T/C (dose: 25.0 mg/kg/injection, schedule: Q04DX003 (ip), vehicle: Klucel (hydroxypropylcellulose) (HPC)): 97 % of control
- T/C [11]: 97 % of control
- T/C [12]: 97 % of control

SMILES: CCOC(=O)NC1=C(N2CC2)C(=O)C(NC(=O)OCC)=C(N2CC2)C1=O
- T/C (dose: 0.13 mg/kg/injection, schedule: Q03HX016 (ip), vehicle: water): 96 % of control
- T/C [1]: 100 % of control
- T/C (dose: 0.25 mg/kg/injection, schedule: Q03HX016 (ip), vehicle: water): 93 % of control
- T/C [2]: 110 % of control
- T/C (dose: 0.75 mg/kg/injection, schedule: Q01DX009 (ip), vehicle: saline): 120 % of control
- T/C (dose: 1.0 mg/kg/injection, schedule: Q01DX001 (oral), vehicle: water): 96 % of control
- T/C (dose: 1.0 mg/kg/injection, schedule: Q03HX024 (ip), vehicle: water): 91 % of control
- T/C (dose: 3.0 mg/kg/injection, schedule: Q01DX009 (ip), vehicle: saline with Tween-80): 162 % of control
- T/C (dose: 3.0 mg/kg/injection, schedule: Q01DX009 (ip), vehicle: saline): 160 % of control
- T/C (dose: 5.0 mg/kg/injection, schedule: Q01DX005 (ip), vehicle: saline with Tween-80): 194 % of control
- T/C (dose: 16.0 mg/kg/injection, schedule: Q01DX009 (oral), vehicle: water): 86 % of control

SMILES: F
- T/C [13]: 105 % of control
- T/C [14]: 107 % of control
- T/C (dose: 12.5 mg/kg/injection, schedule: Q04DX003 (ip), vehicle: saline): 113 % of control
- T/C [3]: 92 % of control
- T/C (dose: 25.0 mg/kg/injection, schedule: Q04DX003 (ip), vehicle: saline): 100 % of control and 124 % of control
- T/C (dose: 50.0 mg/kg/injection, schedule: Q04DX003 (ip), vehicle: saline): 94 % of control

SMILES: CCCCCCCCP(=O)(N1CC1C)N1CC1C (stereo not drawn)
- T/C [15]: 101 % of control
- T/C [13]: 102 % of control
- T/C [14]: 97 % of control
- T/C [3]: 102 % of control

SMILES: c1ccc2cc(-c3csc4ccccc34)ccc2c1
- T/C [12]: 91 % of control
- T/C [16]: 97 % of control
- T/C (dose: 400.0 mg/kg/injection, schedule: Q04DX003 (ip), vehicle: Klucel (hydroxypropylcellulose) (HPC)): 102 % of control

SMILES: NC(=S)N/N=C1/c2cc(Cl)ccc2-c2c(Cl)cc(Cl)cc21
- T/C [17]: 93 % of control
- T/C [18]: 95 % of control
- T/C [19]: 93 % of control
- T/C (dose: 800.0 mg/kg/injection, schedule: Q01DX009 (ip), vehicle: saline with Tween-80): 95 % of control

SMILES: O=C1c2ccc(Br)cc2-c2cc(Br)ccc21
- T/C [20]: 87 % of control
- T/C [17]: 93 % of control

SMILES: CCOc1ccnc(OCC)n1
- T/C [20]: 96 % of control
- T/C (dose: 50.0 mg/kg/injection, schedule: Q01DX009 (ip), vehicle: saline with Tween-80): 101 % of control
- T/C [17]: 99 % of control

SMILES: NCCCCS(=O)(=O)Nc1ccc(Nc2c3ccccc3nc3cc([N+](=O)[O-])ccc23)cc1
- T/C (dose: 50.0 mg/kg/injection, schedule: Q01DX001 (ip), vehicle: saline sonified): 97 % of control
- T/C (dose: 100.0 mg/kg/injection, schedule: Q01DX001 (ip), vehicle: saline sonified): 105 % of control
- T/C (dose: 200.0 mg/kg/injection, schedule: Q01DX001 (ip), vehicle: saline sonified): 113 % of control

SMILES: CC(C)C(C(=O)c1ccccc1)C(c1ccccc1)c1ccccc1 (stereo not drawn)
- T/C (dose: 100.0 mg/kg/injection, schedule: Q04DX003 (ip), vehicle: other): 92 % of control
- T/C (dose: 200.0 mg/kg/injection, schedule: Q04DX003 (ip), vehicle: other): 94 % of control

SMILES: CNCCNc1ccc(NCCNC)c2c1C(=O)c1ccccc1C2=O
- T/C (dose: 2.0 mg/kg/injection, schedule: Q01DX009 (ip), vehicle: acid diluted with saline): 156 % of control
- T/C (dose: 4.0 mg/kg/injection, schedule: Q01DX009 (ip), vehicle: acid diluted with saline): 230 % of control
- T/C (dose: 8.0 mg/kg/injection, schedule: Q01DX009 (ip), vehicle: acid diluted with saline): 231 % of control

SMILES: CCCCNC(=O)Oc1ccc(OCc2ccccc2)cc1
- T/C [17]: 107 % of control
- T/C [18]: 107 % of control
- T/C [19]: 92 % of control

SMILES: C/C(=N/NC(=O)c1ccccc1)c1ccccc1O
- T/C (dose: 100.0 mg/kg/injection, schedule: Q04DX003 (ip), vehicle: gum acacia): 93 % of control
- T/C (dose: 200.0 mg/kg/injection, schedule: Q04DX003 (ip), vehicle: gum acacia): 95 % of control
- T/C (dose: 400.0 mg/kg/injection, schedule: Q04DX003 (ip), vehicle: gum acacia): 93 % of control

SMILES: CCOC(=O)c1ccc(NC(=O)Nc2nncs2)cc1
- T/C (dose: 6.25 mg/kg/injection, schedule: Q01DX009 (ip), vehicle: distilled water + Tween-80): 93 % of control
- T/C (dose: 12.5 mg/kg/injection, schedule: Q01DX009 (ip), vehicle: distilled water + Tween-80): 112 % of control
- T/C (dose: 25.0 mg/kg/injection, schedule: Q01DX009 (ip), vehicle: distilled water + Tween-80): 95 % of control
- T/C (dose: 50.0 mg/kg/injection, schedule: Q01DX009 (ip), vehicle: distilled water + Tween-80): 98 % of control

SMILES: O=C(Cl)C1CC2c3ccccc3C1([N+](=O)[O-])c1ccccc12 (stereo not drawn)
- T/C [11]: 94 % of control
- T/C [12]: 100 % of control
- T/C [16]: 102 % of control

SMILES: Clc1ccc2c(c1)C(Nc1cc3c4ccccc4ccc3c3ccccc13)c1cc(Cl)cc(Cl)c1-2 (stereo not drawn)
- T/C (dose: 6.25 mg/kg/injection, schedule: Q01DX009 (ip), vehicle: saline with Tween-80): 86 % of control

SMILES: Cc1cc2c(cc1C)C(=O)c1ccccc1C2=O
- T/C [3]: 91 % of control
- T/C [4]: 97 % of control
- T/C [5]: 94 % of control

SMILES: Cc1cccc(Cl)c1NC(=O)Cn1cccc1
- T/C [7]: 108 % of control
- T/C [8]: 108 % of control
- T/C (dose: 100.0 mg/kg/injection, schedule: Q01DX009 (ip), vehicle: Klucel (hydroxypropylcellulose) (HPC)): 118 % of control

SMILES: O=[N+]([O-])c1ccc(/C=C2/c3cc(Cl)ccc3-c3c(Cl)cc(Cl)cc32)o1
- T/C [4]: 93 % of control
- T/C [5]: 100 % of control
- T/C [9]: 90 % of control
- T/C [10]: 88 % of control

SMILES: S=P(NCCNP(=S)(N1CC1)N1CC1)(N1CC1)N1CC1
- T/C [6]: 118 % of control
- T/C [7]: 124 % of control

SMILES: O=C(CCCN1CCC(O)(c2ccc(Cl)cc2)CC1)c1ccc(F)cc1
- T/C [15]: 99 % of control
- T/C [13]: 114 % of control
- T/C [14]: 102 % of control
- T/C [4]: 99 % of control
